Measured values taken from patent US20080234233A1, “MEDICAMENT FOR TREATMENT OF NEURODEGENERATIVE DISEASES” (INSTITUTE OF MEDICINAL MOLECULAR DESIGN INC., priority 2002, published 2008).

System: NF-κ B activation
Assay: Inhibitory activity of NF-κB activation, luciferase reporter assay under TNF-α stimulation in HepG2
Type: cell-based, human
Conditions: HepG2, TNF-α 40 ng/ml, 4 hours; for inhibition at 1 µg/mL / inhibition at 10 µg/mL: Homo sapiens, read-out: Inhibitory rate against NF-κB activation (%)
Summary of the method: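 HepG2 cells transiently transfected with luciferase reporter carrying five tandem NF-κB binding sites, then stimulated with TNF-α (40 ng/ml) ± compound for 4 hours. Luminescent luciferase activity measured; inhibition expressed relative to activity without compound.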

Row | Structure (SMILES) | Inhibitory rate against NF-κB activation (%) (Drug concentration at 1 μg/mL) | Inhibitory rate against NF-κB activation (%) (Drug concentration at 10 μg/mL) | inhibition at 1 µg/mL (Drug concentration at 1 μg/mL) [%] | inhibition at 10 µg/mL (Drug concentration at 10 μg/mL) [%]
1 | O=C(Nc1cc([N+](=O)[O-])ccc1Cl)c1cc(Cl)ccc1O [compound 156] | 93.8 | 95.7 | – | –
2 | COc1ccc(C(=O)Nc2ccccc2)cc1NC(=O)c1cc(Cl)ccc1O [compound 157] | 52.6 | 98.8 | – | –
3 | COc1ccc(OC)c(NC(=O)c2cc(Cl)ccc2O)c1 [compound 158] | 52.4 | 96.8 | – | –
4 | COc1ccc(C)c(NC(=O)c2cc(Cl)ccc2O)c1 [compound 160] | 69.6 | 96.5 | – | –
5 | CCCCOc1ccc(OCCCC)c(NC(=O)c2cc(Cl)ccc2O)c1 [compound 161] | 94.2 | 97.6 | – | –
6 | CC(C)CCOc1ccc(OCCC(C)C)c(NC(=O)c2cc(Cl)ccc2O)c1 [compound 162] | 93.8 | 97.9 | – | –
7 | CCC(C)(C)c1ccc(Oc2ccccc2)c(NC(=O)c2cc(Cl)ccc2O)c1 [compound 164] | 97.6 | 98.3 | – | –
8 | CCCCCCOc1ccc(S(C)(=O)=O)cc1NC(=O)c1cc(Cl)ccc1O [compound 165] | 95.9 | 99.4 | – | –
9 | Cc1ccc(C(=O)C(C)(C)C)cc1NC(=O)c1cc(Cl)ccc1O [compound 166] | 94.1 | 96.4 | – | –
10 | COc1ccc(-n2cccc2)c(NC(=O)c2cc(Cl)ccc2O)c1 [compound 167] | 76.4 | 98.7 | – | –
11 | Cc1ccc(S(=O)(=O)c2ccc(Cl)cc2NC(=O)c2cc(Cl)ccc2O)cc1 [compound 168] | 46.7 | 97.8 | – | –
12 | Cc1ccc(S(=O)(=O)c2ccc(Cl)c(NC(=O)c3cc(Cl)ccc3O)c2)cc1 [compound 169] | 31.6 | 95.9 | – | –
13 | COc1ccc(Oc2ccccc2)cc1NC(=O)c1cc(Cl)ccc1O [compound 171] | 90.6 | 98.1 | – | –
14 | Cc1ccc(-c2ccccc2)cc1NC(=O)c1cc(Cl)ccc1O [compound 172] | 93.7 | 96.4 | – | –
15 | COc1ccc(C(C)(C)c2ccccc2)cc1NC(=O)c1cc(Cl)ccc1O [compound 173] | 86.4 | 98.3 | – | –
16 | O=C(Nc1cc(N2CCOCC2)ccc1[N+](=O)[O-])c1cc(Cl)ccc1O [compound 174] | – | 89.6 | – | –
17 | CCCCc1ccc([N+](=O)[O-])cc1NC(=O)c1cc(Cl)ccc1O [compound 176] | 96.0 | 99.5 | – | –
18 | CCC(C)(C)c1ccc(O)c(NC(=O)c2cc(Cl)ccc2O)c1 [compound 177] | 87.8 | 99.4 | – | –
19 | COc1ccc(C)cc1NC(=O)c1cc(Cl)ccc1O [compound 178] | – | 89.7 | – | –
20 | O=C(Nc1cc(F)ccc1F)c1cc(Cl)ccc1O [compound 179] | 92.5 | 93.4 | – | –
21 | O=C(Nc1cc(F)cc(F)c1)c1cc(Cl)ccc1O [compound 180] | 90.7 | 93.7 | – | –
22 | O=C(Nc1cc(Cl)cc(Cl)c1)c1cc2ccccc2cc1O [compound 181] | – | 95.1 | – | –
23 | O=C(Nc1cc(Cl)cc(Cl)c1)c1c(O)ccc2ccccc12 [compound 182] | 85.3 | 90.2 | – | –
24 | COc1ccc(OC)c(NC(=O)c2cc3ccccc3cc2O)c1 [compound 183] | – | 86.8 | – | –
25 | CC(C)(C)c1cc(NC(=O)c2cc(Cl)cnc2O)cc(C(C)(C)C)c1 [compound 184] | 53.6 | 63.8 | – | –

Row | Structure (SMILES) | Inhibitory rate against NF-κB activation (%) (Drug concentration at 1 μg/mL) | Inhibitory rate against NF-κB activation (%) (Drug concentration at 10 μg/mL) | inhibition at 1 µg/mL (Drug concentration at 1 μg/mL) [%] | inhibition at 10 µg/mL (Drug concentration at 10 μg/mL) [%]
26 | CC(C)(C)c1csc(NC(=O)c2cc(Br)ccc2O)n1 [compound 185, 5-Bromo-N-{4-[(1,1-dimethyl)ethyl]thiazol-2-yl}-2-hydroxybenzamide] | – | – | 88.4 | 95.2
27 | CC(C)(C)c1nc(NC(=O)c2cc(Br)ccc2O)sc1Br [compound 186, 5-Bromo-N-{5-bromo-4-[(1,1-dimethyl)ethyl]thiazol-2-yl}-2-hydroxybenzamide] | – | – | 96.5 | 98.7
28 | CC(C)(C)c1nc(NC(=O)c2cc(Cl)ccc2O)sc1C#N [compound 188, 5-Chloro-N-{5-cyano-4-[(1,1-dimethyl)ethyl]thiazol-2-yl}-2-hydroxybenzamide] | – | – | 92.6 | 92.4
29 | CC(C)(C)c1nc(NC(=O)c2cc(Br)ccc2O)sc1C#N [compound 189] | 20.0 | 93.8 | – | –
30 | Cc1cnc(NC(=O)c2cc(Br)ccc2O)s1 [compound 190] | – | 69.7 | – | –
31 | Cc1nc(NC(=O)c2cc(Br)ccc2O)sc1C [compound 191] | – | 67.2 | – | –
32 | Cc1sc(NC(=O)c2cc(Br)ccc2O)nc1-c1ccccc1 [compound 192] | 83.6 | 94.4 | – | –
33 | Cc1nc(NC(=O)c2cc(Br)ccc2O)sc1-c1ccc(F)cc1 [compound 193, 5-Bromo-N-[4-methyl-5-(4-fluorophenyl)thiazol-2-yl]-2-hydroxybenzamide] | – | – | – | 82
34 | Cc1nc(NC(=O)c2cc(Br)ccc2O)sc1-c1cccc(C(F)(F)F)c1 [compound 194, 5-Bromo-N-{4-methyl-5-[3-(trifluoromethyl)phenyl]thiazol-2-yl}-2-hydroxy-benzamide] | – | – | – | 71.7
35 | CC(C)c1nc(NC(=O)c2cc(Br)ccc2O)sc1-c1ccccc1 [compound 197, 5-Bromo-N-(4-isopropyl-5-phenylthiazol-2-yl)-2-hydroxybenzamide] | – | – | 70.1 | 96.1
36 | CCCCc1nc(NC(=O)c2cc(Br)ccc2O)sc1-c1ccccc1 [compound 198, 5-Bromo-N-(4-butyl-5-phenylthiazol-2-yl)-2-hydroxybenzamide] | – | – | 46.1 | 88.7
37 | CC(=O)Oc1ccc(Cl)cc1C(=O)Nc1nc(C(C)(C)C)c(C(=O)C(C)(C)C)s1 [compound 200] | 95.0 | 97.7 | – | –
38 | CCOC(=O)c1sc(NC(=O)c2cc(Br)ccc2O)nc1C(C)(C)C [compound 202, 2-(5-Bromo-2-hydroxybenzoyl)amino-4-[(1,1-dimethyl)ethyl]thiazole-5-carboxylic acid ethyl ester] | – | – | 84.5 | 92.4
39 | CC(C)(C)c1nc(NC(=O)c2cc(Br)ccc2O)sc1N1CCCCC1 [compound 204, 5-Bromo-N-{4-[(1,1-dimethyl)ethyl]-5-piperidinothiazol-2-yl}-2-hydroxybenzamide] | – | – | 93.6 | 97.8
40 | CC(C)(C)c1nc(NC(=O)c2cc(Br)ccc2O)sc1N1CCOCC1 [compound 205, 5-Bromo-N-{4-[(1,1-dimethyl)ethyl]-5-morpholinothiazol-2-yl}-2-hydroxybenzamide] | – | – | 87.8 | 96.8
41 | CN1CCN(c2sc(NC(=O)c3cc(Br)ccc3O)nc2C(C)(C)C)CC1 [compound 206, 5-Bromo-N-{4-[(1,1-dimethyl)ethyl]-5-(4-methylpiperazin-1-yl)thiazol-2-yl}-2-hydroxybenzamide] | – | – | 36.3 | 89.6
42 | CC(C)(C)c1nc(NC(=O)c2cc(Br)ccc2O)sc1N1CCN(c2ccccc2)CC1 [compound 207, 5-Bromo-N-{4-[(1,1-dimethyl)ethyl]-5-(4-phenylpiperazin-1-yl)thiazol-2-yl}-2-hydroxybenzamide] | – | – | 92.5 | 95.9
43 | O=C(Nc1nc(-c2ccccc2)cs1)c1cc(Br)ccc1O [compound 208] | – | 78.8 | – | –
44 | O=C(O)Cc1sc(NC(=O)c2cc(Br)ccc2O)nc1-c1ccccc1 [compound 210] | – | 72.1 | – | –
45 | O=C(Nc1nc(Cc2ccccc2)c(-c2ccccc2)s1)c1cc(Br)ccc1O [compound 212] | 79.7 | 95.0 | – | –
46 | O=C(Nc1nc(C(F)(F)F)c(-c2ccccc2)s1)c1cc(Br)ccc1O [compound 213] | 85.1 | 89.4 | – | –
47 | CC(=O)c1sc(NC(=O)c2cc(Br)ccc2O)nc1-c1ccccc1 [compound 214, 5-Bromo-N-(5-acetyl-4-phenylthiazol-2-yl)-2-hydroxybenzamide] | – | – | 70.2 | 95.9
48 | O=C(Nc1nc(-c2ccccc2)c(C(=O)c2ccccc2)s1)c1cc(Br)ccc1O [compound 215, 5-Bromo-N-(5-benzoyl-4-phenylthiazol-2-yl)-2-hydroxybenzamide] | – | – | 90.7 | 97.3
49 | CCOC(=O)c1sc(NC(=O)c2cc(Br)ccc2O)nc1-c1ccccc1 [compound 216, 2-(5-bromo-2-hydroxybenzoyl)amino-4-phenylthiazole-5-carboxylic acid ethyl ester] | – | – | 55.8 | 82.8
50 | CCOC(=O)c1sc(NC(=O)c2cc(Br)ccc2O)nc1-c1ccccc1 [compound 218] | 80.7 | 94.2 | – | –
